Measurements reported in publication PMC1831776, “Structure and characterization of a novel chicken biotin-binding protein A (BBP-A)” (BMC Structural Biology, 2007).
pKd: −log10 of the molar value. Marks after values point to notes of the source that are not given here.

Columns and labels:
bBBP-A [1] = molecular target: T1, bBBP-A (Gallus gallus, UniProt E1BTQ4); assay: Fluorescence spectroscopy protein-ligand dissociation analysis; assay type: binding, chicken
T1 sequence (E1BTQ4 22-146): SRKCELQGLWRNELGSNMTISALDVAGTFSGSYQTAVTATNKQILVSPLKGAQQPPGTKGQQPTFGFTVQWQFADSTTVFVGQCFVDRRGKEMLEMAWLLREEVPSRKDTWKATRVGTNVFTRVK
Procedure: Fluorescence spectroscopy was also used to measure the rate of protein-ligand dissociation. These experiments were made at 40°C in order to measure the dissociation events within an experimentally applicable timescale. […] The measured spectral properties of each protein-ligand complex (i.e. the emission intensity of the protein-ligand complex) were used to create a single-phase dissociation model, which was fitted to the data.

chicken AVD [2] = molecular target: T2, chicken AVD (Gallus gallus, UniProt P02701); assay: Isothermal titration calorimetry, AVD; assay type: binding; details: 25°C
T2 construct: AVD isolated from chicken egg-white (wtAVD; Belovo S. A., Bastogne, Belgium); purchased Belovo S. A., Bastogne, Belgium; host or cells: chicken egg-white
Procedure: (§1) The energetics of biotin binding was determined with a VP-ITC (MicroCal™) Isothermal Titration Calorimeter. Measurements were performed at 25°C in degassed 50 mM NaPO4 buffer (pH 7.0) containing 100 mM NaCl. In order to calculate the enthalpies of binding (ΔH) for BBP-A and AVD, the cell used for measurements was filled with 30 μM protein solution. […] The data were analysed with Origin 7.0 software using the "One Set of Sites" method. The titration curve (heat change μcal/injection) resulting from the 15 injections was analysed by fitting the data to a nonlinear least square curve.

bBBP-A [3] = molecular target: T1, bBBP-A; assay: Isothermal titration calorimetry, BBP-A; assay type: binding, chicken; details: for Enthalpy (ITC), BBP-A: 25°C
Procedure: as §1

chicken AVD [4] = molecular target: T2, chicken AVD; assay: DSC of AVD in the presence of ligand; assay type: binding
Procedure: (§2) Differential scanning analysis was performed in 50 mM NaPO4 buffer (pH 7.0) containing 100 mM NaCl as previously described. The concentration of the analyzed proteins was between 0.2 and 0.6 mg/ml. In samples containing a ligand, the molar ligand concentration was three times as high as the protein subunit concentration. The samples were scanned from 25 to 130°C at a rate of 0.92°C/min.

bBBP-A [5] = molecular target: T1, bBBP-A; assay: DSC of BBP-A in the presence of ligand; assay type: binding, chicken
Procedure: as §2

BBP-A = molecular target: T3, BBP-A (Gallus gallus, UniProt E1BTQ4); assay: Biotin-binding affinity of BBP-A; set-up: species or system chicken
T3 sequence (E1BTQ4 22-146): T1 sequence (E1BTQ4 22-146)
Procedure: Background The chicken genome contains a BBP-A gene showing similar characteristics to avidin family genes. In a previous study we reported that the BBP-A gene may encode a biotin-binding protein due to the high sequence similarity with chicken avidin, especially at regions encoding residues known to be located at the ligand-binding site of avidin.
(§3) The dissociation rate of [^3H]biotin from BBP-A was measured using a competitive dissociation assay (Figure 9; Table 2).

bBBP-A [6] = molecular target: T1, bBBP-A; assay: Intrinsic fluorescence emission spectra, BBP-A; assay type: binding, chicken; details: 100 nM protein, 200 nM ligand, 25°C, excitation 280 nm
Procedure: (§4) The ligand-induced changes to the emission spectra of bBBP-A and wtAVD were studied, too (Figure 11). […] Compared to the ligand-free proteins, for each of the ligand-protein combinations the maximum in the emission spectra moved towards the shorter blue wavelengths.
(§5) In order to study the intrinsic fluorescence of the proteins, the emission spectra of bBBP-A and wtAVD in 50 mM NaPO4 buffer (pH 7.0) containing 650 mM NaCl were measured using a PerkinElmer LS55 spectrofluorometer and excitation at 280 nm (slit 2.5 nm). During the analysis, protein solutions (100 nM) were continuously mixed using an integrated magnetic stirrer and maintained at 25°C using a circulating water bath.

wtAVD = molecular target: T4, wtAVD (Gallus gallus, UniProt P02701); assay: Intrinsic fluorescence emission spectra, AVD; assay type: binding, chicken; details: 100 nM protein, 200 nM ligand, 25°C, excitation 280 nm
T4 construct: AVD isolated from chicken egg-white (wtAVD; Belovo S. A., Bastogne, Belgium); purchased Belovo S. A., Bastogne, Belgium; host or cells: chicken egg-white
Procedure: as §4, §5

AVD = assay: Dissociation of BSO (fluorometric) versus BTN (radiobiotin) from AVD; assay type: binding, chicken; details: 50°C; BSO fluorometric analysis, BTN radiobiotin assay
bBBP-A [7] = molecular target: T1, bBBP-A; assay: [3H]-biotin competitive dissociation analysis (ligand from BBP-A); assay type: binding, chicken; details: 40°C, [3H]-biotin dissociation analysis, excess of BTN as competitive ligand
Procedure: as §3
The dissociation rate of [^3H]biotin (Amersham) was measured at various temperatures with a competition assay as described previously. Measurements were carried out in 50 mM NaPO4 buffer containing 100 mM NaCl.

[8] = Dissociation of fluorescent biotin conjugate ArcDia BF560-biotin from the proteins; assay type: binding; details: 25°C
Procedure: as §3
The dissociation rate of the fluorescent biotin conjugate ArcDia™ BF560-biotin (ArcDia Ltd., Turku, Finland) was measured as reported previously. The measurements were made at 25°C in 50 mM NaPO4 buffer (pH 7.0) containing 650 mM NaCl using a PerkinElmer LS55 luminometer.

[9] = Differential scanning calorimetry of the proteins; assay type: physicochemical, chicken; details: with BTN
Procedure: as §2

[10] = set-up: method as in PMID 15324300; details: ref [30], cited from earlier work; for Tr +BTN: with BTN; for Tr -BTN: without BTN
[11] = without BTN; ref [33]; cited from earlier work
[12] = molecular target: chicken biotin-binding protein A expressed in bacteria (bBBP-A) (chicken); assay: crystal structure; bBBP-A co-crystallised with BTN; two crystals, BBP-A - BTN (2.1 A, I4(1)22) and BBP-A - BSO (1.75 A, P2(1)2(1)2)
[13] = molecular target: chicken biotin-binding protein A expressed in bacteria (bBBP-A) (chicken); assay: SEC; gel filtration, Superdex 200 10/300 GL, 50 mM NaPO4, 650 mM NaCl, pH 7.0; samples without BTN and after 15 min with 0.22 mM BTN; apparent masses from standard proteins
[14] = molecular target: chicken biotin-binding protein A expressed in bacteria (bBBP-A) (chicken); assay: SDS-PAGE-based thermostability assay; samples saturated with BTN; acetylated in vitro, thermal treatment 20 min in sample buffer with SDS and 2-mercaptoethanol, Coomassie staining
[15] = molecular target: chicken biotin-binding protein A expressed in insect cells (iBBP-A) (chicken); assay: SEC; gel filtration, Superdex 200 10/300 GL, 50 mM NaPO4, 650 mM NaCl, pH 7.0; samples without BTN and after 15 min with 0.22 mM BTN; apparent masses from standard proteins
[16] = molecular target: chicken biotin-binding protein A expressed in insect cells (iBBP-A) (chicken); assay: SDS-PAGE-based thermostability assay; samples saturated with BTN; acetylated in vitro, thermal treatment 20 min in sample buffer with SDS and 2-mercaptoethanol, Coomassie staining
[17] = 40°C, fluorescence spectroscopic analysis, excess of BTN as competitive ligand

T2 sequence (P02701 25-152): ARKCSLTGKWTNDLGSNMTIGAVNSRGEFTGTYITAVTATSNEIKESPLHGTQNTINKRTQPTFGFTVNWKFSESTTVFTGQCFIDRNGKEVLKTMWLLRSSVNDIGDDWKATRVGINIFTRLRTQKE
T4 sequence (P02701 25-152): as above

O=C(O)CCCC[C@H]1[C@H]2NC(=O)N[C@H]2C[S+]1[O-] (stereo partly drawn) [BSO, D-biotin D-sulfoxide]
kdiss from BBP-A (bBBP-A [1]; [17]): 1.3^a × 10^-4 s^-1 | Enthalpy (ITC), AVD (chicken AVD [2]): -29.3 ± 0.1 kcal/mol | Enthalpy (ITC), BBP-A (bBBP-A [3]): -25.9 ± 0.1 kcal/mol | Tm (DSC), AVD (chicken AVD [4]): 116.9 ± 0.2 °C | Tm (DSC), BBP-A (bBBP-A [5]): 100.4 ± 0.2 °C | affinity of BBP-A for BSO compared with BTN (BBP-A): even higher than the affinity for BTN | ligand-induced change of emission intensity of BBP-A (bBBP-A [6]): enhanced the emission intensity | ligand-induced change of emission intensity of AVD (wtAVD): decreased the emission intensity | dissociation rate from AVD, times higher in comparison to BTN (AVD): more than 20 times

O=C(O)CCCC[C@@H]1SC[C@@H]2NC(=O)N[C@@H]21 [BTN, D-biotin]
kdiss from BBP-A (bBBP-A [1]): 5.4^b (4.4^c) × 10^-4 s^-1 | kdiss from BBP-A (bBBP-A [7]): 5.4^b (4.4^c) × 10^-4 s^-1 | Enthalpy (ITC), AVD (chicken AVD [2]): -22.6 ± 0.1 kcal/mol | pKd (bBBP-A [3]): > 9.00 | Enthalpy (ITC), BBP-A (bBBP-A [3]): -20.5 ± 0.1 kcal/mol | Tm (DSC), AVD (chicken AVD [4]): 117.0 ± 0.7 °C | Tm (DSC), BBP-A (bBBP-A [5]): 103.4 ± 0.1 °C | affinity of BBP-A for biotin, times lower than that of chicken avidin (BBP-A): about 50 times | ligand-induced change of emission intensity of BBP-A (bBBP-A [6]): enhanced the emission intensity | ligand-induced change of emission intensity of AVD (wtAVD): decreased the emission intensity

O=C(O)CCCC[C@H]1[C@H]2NC(=O)N[C@H]2CS1(=O)=O [D-biotin sulfone]
kdiss from BBP-A (bBBP-A [1]; [17]): 3.3^a × 10^-4 s^-1 | Enthalpy (ITC), AVD (chicken AVD [2]): -25.1 ± 0.1 kcal/mol | Enthalpy (ITC), BBP-A (bBBP-A [3]): -21.4 ± 0.1 kcal/mol | Tm (DSC), AVD (chicken AVD [4]): 117.0 ± 0.0 °C | Tm (DSC), BBP-A (bBBP-A [5]): 101.4 ± 0.2 °C | ligand-induced change of emission intensity of BBP-A (bBBP-A [6]): enhanced the emission intensity | ligand-induced change of emission intensity of AVD (wtAVD): increased the emission intensity

AVD: AVD isolated from chicken egg-white (Belovo S. A.), control protein
kdiss, dissociation of fluorescent BTN [8]: 2.0 10^-5 s^-1 | Release 1 h, dissociation of fluorescent BTN [8]: 10% | Tm +BTN (DSC) [9]: 117.0 °C | Tr +BTN [10]: 90^b °C | Tr -BTN [10]: 60^b °C | Tm -BTN (DSC) [11]: 83.5^c °C

bAVD: AVD produced in E. coli, control protein
kdiss, dissociation of fluorescent BTN [8]: 1.1 10^-5 s^-1 | Release 1 h, dissociation of fluorescent BTN [8]: 5% | Tr +BTN [10]: 90^b °C | Tr -BTN [10]: 60^b °C

chicken biotin-binding protein A expressed in bacteria (bBBP-A) (natural protein)
stoichiometry N [12]: 4 | stoichiometry N [13]: 4 | stoichiometry N [14]: 4

chicken biotin-binding protein A expressed in insect cells (iBBP-A) (natural protein)
stoichiometry N [15]: 4 | stoichiometry N [16]: 4
